Earlier results, collected in patent publication US5691323A, “Muscarine antagonists” (Merck & Co., Inc., priority 1995, dated 1997).

Columns and labels:
[1] = test system: smooth muscle (ordinarily called M3 type); conditions: background
[2] = background statement
axial elongation = conditions: background
pupil = conditions: background

C[N+]1(C)CCC(OC(=O)C(c2ccccc2)c2ccccc2)CC1 [Example 4-DAMP, 4-diphenylacetoxy-N-methylpiperadine methiodide]
Selectivity for smooth muscle (M3 type) receptors [1]: relatively selective antagonist for smooth muscle

CN1CCN(CC(=O)N2c3ccccc3C(=O)Nc3cccnc32)CC1 [Pirenzepine]
Sensitization assay result [2]: positive
Effect on axial elongation / enlargement of the eye (axial elongation): inhibits axial elongation
Pupil dilation (mydriasis) (pupil): far less effective at pupil dilation than atropine

CN1CCc2cccc3c2[C@H]1Cc1ccc(O)c(O)c1-3 [apomorphine]
Effect on axial elongation / enlargement of the eye (axial elongation): inhibit or actually prevent the axial enlargement of the eye

CN1[C@@H]2CC[C@H]1C[C@@H](OC(=O)C(CO)c1ccccc1)C2 (stereo partly shown) [atropine]
Sensitization assay result [2]: positive
Pupil dilation (mydriasis) (pupil): causes mydriasis
